One assay addresses CDK4/CyclinD1 (Homo sapiens, UniProt P11802). The assay can be described thus: CDK4/CyclinD1 Flashplate assay, 96-well format, biotinylated-Rb peptide substrate. Format: biochemical. The method, boiled down:
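Biotinylated Rb peptide bound to streptavidin Flashplate; CDK4/CyclinD1 (70 ng/well) preincubated 30 min on ice with compound at 10, 3, 1, 0.3 and 0.1 μM final. Reaction with 1 μM cold ATP plus 33P-ATP for 45 min at RT; incorporated 33P counted, duplicates.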

In the next assay the target is CDK2/CyclinE (Homo sapiens, UniProt P24941). The assay can be described thus: CDK2/CyclinE Flashplate assay, 96-well format, biotinylated-Rb peptide substrate. Format: biochemical. The procedure: This is a CDK2/CyclinE kinase assay in a 96-well Streptavidin-coated Flashplate with a biotinylated-Rb peptide substrate.
Each point is tested in duplicate
Biotinylated-Rb: Biotin-[…]-OH
• 1. Prepare substrate: 1 mg/ml solution made fresh in PBS. • 2. Add 4 μg per well to the Flashplate. • 3. Incubate for 2 hours at RT. • 4. From 10 mM inhibitor stocks in DMSO, make 1 mM, 300 μM, 100 μM, 30 μM and 10 μM series of dilution in DMSO. • 5. Was the Flashplate 3 times with 300 μl PBS to remove unbound peptide substrate. • 6. Add the CDK2/CyclinE kinase: 200 ng per well, in a volume of 90 μl in kinase buffer (except for “no enzyme” control wells). • 7. Add 1 μl per well of inhibitor to test 10 μM, 3 μM, 1 μM, 0.3 μM and 0.1 μM in final concentration per 100 μl in each well. • 8. Shake gently the Flashplate 1 minute. • 9. Incubate 30 minutes on wet ice. • 10. Initiate the reaction with 10 μl kinase buffer containing 1 μM final cold ATP and 1 μCi final ^33P-ATP per well. • 11. Shake gently the Flashplate 1 minute. • 12. Incubate 45 minutes at RT (no shaking). • 13. Wash the Flashplate 3 times with 300 μl PBS
14. Count to detect the incorporation of ^33P-ATP by the kinase to the Rb phosphorylation site.

We go through 21 compounds from patent US20050014811A1, “Substituted benzimidazole compounds and their use for the treatment of cancer” (Aventis Pharma S.A., priority 2001, published 2005).

The IC50 is the concentration that inhibits the measured activity by half.

Each structure is given as a SMILES string.

Sequence of CDK4/CyclinD1 (P11802 whole entry, species assumed): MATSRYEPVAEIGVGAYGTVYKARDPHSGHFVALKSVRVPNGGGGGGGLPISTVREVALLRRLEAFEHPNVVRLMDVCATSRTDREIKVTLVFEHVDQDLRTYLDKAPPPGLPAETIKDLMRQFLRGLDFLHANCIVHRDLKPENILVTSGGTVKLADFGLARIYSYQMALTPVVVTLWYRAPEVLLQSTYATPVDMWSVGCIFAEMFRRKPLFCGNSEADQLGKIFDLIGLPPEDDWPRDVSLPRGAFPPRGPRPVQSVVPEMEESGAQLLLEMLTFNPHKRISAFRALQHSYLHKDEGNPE
Sequence of CDK4/CyclinD1 (P24385 whole entry partner, species assumed): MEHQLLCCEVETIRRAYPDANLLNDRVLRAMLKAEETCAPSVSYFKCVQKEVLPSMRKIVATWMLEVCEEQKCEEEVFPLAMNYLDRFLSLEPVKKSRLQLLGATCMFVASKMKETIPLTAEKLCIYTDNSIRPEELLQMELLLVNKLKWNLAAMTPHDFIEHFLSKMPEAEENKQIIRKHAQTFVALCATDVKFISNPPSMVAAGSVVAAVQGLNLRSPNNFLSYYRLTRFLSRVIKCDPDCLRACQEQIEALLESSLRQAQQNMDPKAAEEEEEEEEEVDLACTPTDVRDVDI

In the case of `O=C(Nc1nc2cc(OS(=O)(=O)c3ccc(NC4CCCC4)cc3)ccc2[nH]1)NC1CC1` [Example 33, 4-Cyclopentylamino-benzenesulfonic acid 2-(3-cyclopropyl-ureido)-1H-benzoimidazol-5-yl ester], the IC50 against CDK4/CyclinD1 came out at 640 nM; at CDK2/CyclinE it was 60 nM.
For `COCC(=O)Nc1nc2cc(OS(=O)(=O)c3ccc(NC4CCCC4)cc3)ccc2[nH]1` [Example 28, 4-Cyclopentylamino-benzenesulfonic acid 2-(2-methoxy-acetylamino)-1H-benzoimidazol-5-yl ester] the same measures were 1030 nM and 600 nM.
In the case of `O=C(NCCCO)Nc1nc2cc(OS(=O)(=O)c3ccc(NC4CCCC4)cc3)ccc2[nH]1` [Example 58-y, 4-Cyclopentylamino-benzenesulfonic acid 2-[3-(3-hydroxy-propyl)-ureido]-1H-benzoimidazol-5-yl ester], the IC50 worked out at 270 nM at CDK4/CyclinD1 and 10 nM at CDK2/CyclinE.
For `O=C(NCCS(=O)(=O)O)Nc1nc2cc(OS(=O)(=O)c3ccc(NCC4CCCO4)cc3)ccc2[nH]1` (stereo not drawn) [Example 59-n, 4-[(Tetrahydro-furan-2-ylmethyl)-amino]-benzenesulfonic acid 2-[3-(2-sulfo-ethyl)-ureido]-1H-benzoimidazol-5-yl ester], the IC50 against CDK4/CyclinD1 came out at 130 nM; at CDK2/CyclinE it was 36 nM.
Regarding `NC(=O)CCNC(=O)Nc1nc2cc(OS(=O)(=O)c3ccc(NC4CCCC4)cc3)ccc2[nH]1` [Example 58-ad, 4-Cyclopentylamino-benzenesulfonic acid 2-[3-(2-carbamoyl-ethyl)-ureido]-1H-benzoimidazol-5-yl ester], the figures for the IC50 at CDK4/CyclinD1 and against CDK2/CyclinE were 130 nM and 16 nM, respectively.
For `O=C(NCCNCCO)Nc1nc2cc(OS(=O)(=O)c3ccc(NC4CCCC4)cc3)ccc2[nH]1` [Example 58-aa, 4-Cyclopentylamino-benzenesulfonic acid 2-{3-[2-(2-hydroxy-ethylamino)-ethyl]-ureido}-1H-benzoimidazol-5-yl ester], the IC50 at CDK4/CyclinD1 turned out to be 340 nM; on CDK2/CyclinE it was 100 nM.
Consider `O=C(Nc1nc2cc(OS(=O)(=O)c3ccc(NCC4CCCO4)cc3)ccc2[nH]1)NC1CCC1` (stereo not drawn) [Example 59-o, 4-[(Tetrahydro-furan-2-ylmethyl)-amino]-benzenesulfonic acid 2-(3-cyclobutyl-ureido)-1H-benzoimidazol-5-yl ester], for which the IC50 came out at 800 nM at CDK4/CyclinD1 and 40 nM against CDK2/CyclinE.
Consider `O=C(NCCCCO)Nc1nc2cc(OS(=O)(=O)c3ccc(NCC4CCCO4)cc3)ccc2[nH]1` (stereo not drawn) [Example 59-d, 4-[(Tetrahydro-furan-2-ylmethyl)-amino]-benzenesulfonic acid 2-[3-(4-hydroxy-butyl)-ureido]-1H-benzoimidazol-5-yl ester], for which the IC50 at CDK4/CyclinD1 is 500 nM; against CDK2/CyclinE it was 15 nM.
In the case of `O=C(Nc1ccccc1)Nc1nc2cc(OS(=O)(=O)c3ccc(-n4ccnc4)cc3)ccc2[nH]1` [Example 57-a, 4-Imidazol-1-yl-benzenesulfonic acid 2-(3-phenyl-ureido)-1H-benzoimidazol-5-yl ester], the IC50 against CDK4/CyclinD1 was 1000 nM; against CDK2/CyclinE, 240 nM.
Consider `O=C(NCc1ccccn1)Nc1nc2cc(OS(=O)(=O)c3ccc(NCC4CCCO4)cc3)ccc2[nH]1` (stereo not drawn) [Example 59-k, 4-[(Tetrahydro-furan-2-ylmethyl)-amino]-benzenesulfonic acid 2-(3-pyridin-2-ylmethyl-ureido)-1H-benzoimidazol-5-yl ester], for which the IC50 stood at 300 nM against CDK4/CyclinD1 and 20 nM against CDK2/CyclinE.
With `O=C(NCCNCCO)Nc1nc2cc(OS(=O)(=O)c3ccc(NCC4CCCO4)cc3)ccc2[nH]1` (stereo not drawn) [Example 59-q, 4-[(Tetrahydro-furan-2-ylmethyl)-amino]-benzenesulfonic acid 2-{3-[2-(2-hydroxy-ethylamino)-ethyl]-ureido}-1H-benzoimidazol-5-yl ester], the IC50 against CDK4/CyclinD1 was found to be 750 nM; at CDK2/CyclinE, 110 nM.
`O=C(NCc1cccnc1)Nc1nc2cc(OS(=O)(=O)c3ccc(NCC4CCCO4)cc3)ccc2[nH]1` (stereo not drawn) [Example 59-l, 4-[(Tetrahydro-furan-2-ylmethyl)-amino]-benzenesulfonic acid 2-(3-pyridin-3-ylmethyl-ureido)-1H-benzoimidazol-5-yl ester]: the IC50 against CDK4/CyclinD1 stood at 300 nM; against CDK2/CyclinE it was 4 nM.
For `COC(=O)Nc1nc2cc(OS(=O)(=O)c3c(F)cccc3F)ccc2[nH]1` [Example 62-h, 2,6-Difluoro-benzenesulfonic acid 2-methoxycarbonylamino-1H-benzoimidazol-5-yl ester], the IC50 amounted to 800 nM against CDK4/CyclinD1 and 70 nM on CDK2/CyclinE.
In the case of `COC(=O)CCCC(=O)Nc1nc2cc(OS(=O)(=O)c3ccc(NC4CCCC4)cc3)ccc2[nH]1` [Example 26, 4-[5-(4-Cyclopentylamino-benzenesulfonyloxy)-1H-benzoimidazol-2-ylcarbamoyl]-butyric acid methyl ester], the IC50 at CDK4/CyclinD1 came out at 680 nM; at CDK2/CyclinE, 130 nM.
For `COC(=O)[C@H](CO)NC(=O)Nc1nc2cc(OS(=O)(=O)c3ccc(NC4CCCC4)cc3)ccc2[nH]1` [Example 58-an, 2-{3-[5-(4-Cyclopentylamino-benzenesulfonyloxy)-1H-benzoimidazol-2-yl]-ureido}-3S-hydroxy-propionic acid methyl ester], the IC50 amounted to 200 nM at CDK4/CyclinD1 and 100 nM at CDK2/CyclinE.
On to `O=C(NCCCN1CCCC1)Nc1nc2cc(OS(=O)(=O)c3ccc(NCC4CCCO4)cc3)ccc2[nH]1` (stereo not drawn) [Example 59-h, 4-[(Tetrahydro-furan-2-ylmethyl)-amino]-benzenesulfonic acid 2-[3-(3-pyrrolidin-1-yl-propyl)-ureido]-1H-benzoimidazol-5-yl ester], for which the values for the concentration for half-maximal inhibition (IC50) against CDK4/CyclinD1 and on CDK2/CyclinE were 1100 nM and 200 nM, respectively.
For `O=C(NCCS(=O)(=O)O)Nc1nc2cc(OS(=O)(=O)c3ccc(-n4ccnc4)cc3)ccc2[nH]1` [Example 47, 4-Imidazol-1-yl-benzenesulfonic acid 2-[3-(2-sulfo-ethyl)-ureido]-1H-benzoimidazol-5-yl ester] the same measures were 800 nM and 160 nM.
Turning to `O=C(Nc1nc2cc(OS(=O)(=O)c3ccc(-n4ccnc4)cc3)ccc2[nH]1)Nc1ccccc1F` [Example 36, 4-Imidazol-1-yl-benzenesulfonic acid 2-[3-(2-fluoro-phenyl)-ureido]-1H-benzoimidazol-5-yl ester], the IC50 on CDK4/CyclinD1 turned out to be 770 nM; against CDK2/CyclinE it was 530 nM.
For `CNc1ccc(S(=O)(=O)Oc2ccc3[nH]c(NC(=O)OC)nc3c2)cc1` [Example 14, Methyl-5-(4-methylaminophenylsulfonyloxy) benzimidazole-2-carbamate], the IC50 on CDK4/CyclinD1 was found to be 300 nM; against CDK2/CyclinE, 200 nM.
For `CCN(CC)CCNC(=O)Nc1nc2cc(OS(=O)(=O)c3ccc(NC4CCCC4)cc3)ccc2[nH]1` [Example 58-am, 4-Cyclopentylamino-benzenesulfonic acid 2-[3-(2-diethylamino-ethyl)-ureido]-1H-benzoimidazol-5-yl ester], the IC50 turned out to be 240 nM at CDK4/CyclinD1 and 80 nM against CDK2/CyclinE.
As to `O=C(NCCCO)Nc1nc2cc(OS(=O)(=O)c3ccc(NCC4CCCO4)cc3)ccc2[nH]1` (stereo not drawn) [Example 59-c, 4-[(Tetrahydro-furan-2-ylmethyl)-amino]-benzenesulfonic acid 2-[3-(3-hydroxy-propyl)-ureido]-1H-benzoimidazol-5-yl ester], the values for the 50% inhibitory concentration (IC50) against CDK4/CyclinD1 and against CDK2/CyclinE were 1000 nM and 7 nM, respectively.
